Patent publication EP1333824B1, “TREATMENT OF SEXUAL DYSFUNCTION WITH BOMBESIN RECEPTOR ANTAGONISTS” (Warner-Lambert Company LLC, priority 2000, dated 2002)

Key:
[1] = test system: Ovariectomised adult female Sprague Dawley rats; experiment: Female rat sexual proceptivity test (time investigating male vs female stimulus); format: in vivo
[2] = test system: Ovariectomised adult female Sprague Dawley rats; experiment: Female rat sexual receptivity test (lordosis quotient, LQ); format: in vivo; conditions: for lordosis quotient (LQ): quinelorane 6.25µg/kg s.c. 90min
Description: (§1) Ovariectomised adult female Sprague Dawley rats (180-200g, from Charles River) were housed in groups of 6 in a reversed lighting system of 12h light:dark (lights off 7.00-19.00h). Two weeks after ovariectomy they were used for sexual activity tests. The experiments started at least 5h into the dark period.
It was administered intraperitoneally (i.p.) at a dose of 10mg/kg, in a dosing volume of 1ml/kg. […] Forty eight hours before testing, ovariectomised female rats (as described above), were primed with 5µg oestradiol benzoate dissolved in corn oil and injected subcutaneously. […] The females were placed with a series of vigorous male rats and subjected to 10 mounts.
The lordotic response of the animal was recorded and expressed as a percentage of the mounts (i.e. lordosis quotient, LQ), as previously described. Animals showing LQ<20 were considered non-receptive and were included in the study. Each rat was tested prior to administration of the compound and then tested similarly post-injection.
The above compound was dissolved in PEG200 vehicle and administered orally. […] Both compounds were administered in a 1ml/kg volume.
Forty eight hours before tests, the animals were primed with 5µg oestradiol benzoate (Sigma Chemical. Co. Ltd., UK) dissolved in corn oil and injected subcutaneously. The females were placed with a series of vigorous male rats and subjected to 10 mounts. The lordotic response of the animal was recorded and expressed as a percentage of the mounts (i.e. lordosis quotient, LQ). […] Animals showing higher LQ were not included in the study. Each rat was tested prior to administration of the compound and then tested similarly at 1h and 90min post-injection of the above compound or quinelorane respectively.

Sprague Dawley male rats [3] = experiment: Sexual behaviour of fluoxetine-induced sexually dysfunctional male rats; format: in vivo, rat; conditions: fluoxetine 20mg/kg i.p. 3 days (vs vehicle+vehicle)
Description: (§2) Sprague Dawley male rats (Charles River, UK) were kept, 4 rats per cage, in a reversed lighting regime (12:12 hours, lights off at 5.00 h), with free access to food and water. The rats were pre-selected by being presented with a receptive female at 4 days intervals, i.e. every third day (having 2 clear days between presentations) until completing 6-7 trials of baseline determination. The animals showing consistently vigorous behaviour (ejaculatory latencies <300s) were chosen for further experiments. Animals were treated for 3 consecutive days with either vehicle (water) or fluoxetine (20mg/kg, i.p., in a 2ml/kg dosing volume). […] All treatments were administered i.p. in a 1ml/kg volume, 1h before tests.
(§3) For all the sexual behaviour tests, the males were placed in an observation arena (50-60 cm diameter), starting 5 hours into the dark cycle and observed under red illumination. Three to 4 minutes after placing the male in the arena, a receptive female (ovariectomised, bearing a 7 mm Silastic implant of oestradiol benzoate) was introduced to the arena and the following parameters noted: Mount Latency: time (in seconds) taken between introduction of female and first mount. A maximum time of 15 minutes (900 seconds) was allowed, and the test terminated if no mounts were recorded within that time (Figure 16), Ejaculation Latency: time (in seconds) taken from first intromission to ejaculation. A maximum time of 30 minutes (1800 seconds) was given, and the test terminated if ejaculation was not achieved in that time (Figure 17), Percentage of males achieving ejaculation within 30 minutes was calculated (Figure 18).
A one-way ANOVA followed by Dunnett's t test was used to compare the fluoxetine+vehicle group and other groups for mount and ejaculatory latencies. Percentage of animals ejaculating was analysed using a Chi-square test followed by Fisher's test. (*: P<0.05, **: P<0.01, ***: P<0.001; n=15-19).

Sprague Dawley male rats [4] = experiment: Sexual behaviour of normal (sexually vigorous) male rats; format: in vivo, rat; conditions: Compound (1) 15mg/kg or Fluoxetine 20mg/kg i.p. 1h before tests, vs vehicle
Description: as §2, with “days” for “trials”, “experiments (n=24).” for “experiments.”, “randomised into three groups. All animals received all three treatments following a latin-square design. Treatments were administered once a week, with a baseline test in between treatments (4” for “treated for 3 consecutive”, “intervals between baseline and test day).” for “with either vehicle (water) or fluoxetine (20mg/kg, i.p., in a 2ml/kg dosing volume).”
as §3, with “11), Intromission Latency: time (in seconds) taken between introduction of female and first intromission (Figure 12), Number of Mounts: to reach ejaculation. When ejaculation was not reached, the number of mounts was not analyzed, Number of Intromissions: to reach ejaculation. When ejaculation was not reached, the number of intromissions was not analyzed (Figure 13 is number of mounts + intromissions),” for “16),”, “14), and Refractory Period: time (in seconds) taken from ejaculation to the first mount” for “17), Percentage”, “the next series of sexual activity. In those animals reaching” for “males achieving”, “the test” for “within 30 minutes”, “terminated at the end of the refractory period, as indicated by the first mount of the next sexual cycle” for “calculated”, “15).” for “18).”
A one-way ANOVA followed by Dunnett's t test was used to compare treated vs vehicle groups each day of testing, for all the sexual behaviour parameters.

[5] = test system: Ovariectomised adult female Sprague Dawley rats; experiment: Female rat sexual proceptivity test (time investigating male vs female stimulus); format: in vivo; remark: listed apart in the source
Description: as §1
Tests were carried out in a circular arena of 90cm diameter, surrounded by a 30cm high wall. Two small cages with wire-mesh front (15x15cm) are fixed into the wall such that the front of the cage is «flush» with the wall and the 2 cages are opposite each other. They contained two stimuli animals: an intact sexually experienced male and a receptive female (ovariectomised, primed with 5µg oestradiol benzoate dissolved in corn oil and injected subcutaneously 48 hours before the test and with 0.5 mg of progesterone four hours before the test). Sexually naive test and control animals were used. Forty eight hours before the tests, both the test and control animals were primed with 5µg oestradiol benzoate. For animals used as positive controls, progesterone (0.5mg/0.1ml) was dissolved in corn oil and administered subcutaneously (s.c.), 4h before the test. Test and control animals were introduced one at a time for 10 minute periods into the arena. During the 10min test, the time that the test or positive control animal spent investigating each stimulus animal was noted. The arena was thoroughly cleaned between animals. The position of the male/female stimuli boxes was randomised between animals, in order to avoid place preference. The difference in the percentage of time spent investigating the male minus the female stimuli was calculated, out of the total time spent investigating stimuli animals. […]
Ovariectomised adult female Sprague Dawley rats (180-200g) were housed in groups of 5 in a reversed lighting system of 12h light:dark (lights off 5.00-17.00h). They were used for the experiments at least two weeks after ovariectomy. Forty eight hours before tests, the animals were primed with oestradiol benzoate (5µg/0.1ml in corn oil, s.c.). On day 1, progesterone (0.5mg/0.1ml, in corn oil, s.c.) was administered to one of the groups 4h before tests, as a positive control. […] The test lasted 10 minutes and was carried out as described before. The difference in the percentage of time spent investigating the male minus the female stimuli was calculated, out of the total time spent investigating stimuli animals. Animals were submitted to a test on day 1 and on day 15. […] On day 15 the test took place again, as described for day 1. […]

[6] = Example 31, after vs before administration, Compound (2) oral 10-100mg/kg in PEG200, 1h
[7] = day 4 Compound (1) 15mg/kg or yohimbine 2mg/kg i.p. 1h before tests (vs fluoxetine+vehicle)

In the case of COc1ccc(C2(CNC(=O)[C@](C)(Cc3c[nH]c4ccccc34)Nc3nc(-c4ccc([N+](=O)[O-])cc4)co3)CCCCC2)nc1 [Example 9, (S)-3-(1H-Indol-3-yl)-N-[1-(5-methoxy-pyridin-2-yl)-cyclohexylmethyl]-2-methyl-2-[4-(4-nitro-phenyl)-oxazol-2-ylamino]-propionamide], the “MED (increase in percentage of time spent investigating the male stimulus)” value ([1]; Example 29, oral, 30-100mg/kg in PEG 200 vehicle, 1h before test) is reported as 100 mg/kg, the “percentage of time spent investigating the male stimulus” value ([1]; Example 29, oral, dose-dependent 30-100mg/kg in PEG 200, 1h before test) is reported as “increased the percentage of time spent investigating the male stimulus” and the “increase in potency compared to the oral results obtained in the PEG200 vehicle” value ([1]; Example 30, methyl cellulose MED vs PEG200 MED) is reported as 10 fold. The “MED (increase in percentage of time spent investigating the male stimulus)” value ([1]; Example 30, p.o., 3-30mg/kg in 0.5% methyl cellulose, 1h before tests) was 10 mg/kg, the “percentage of time spent investigating the male stimulus” value ([1]; Example 30, p.o., dose-dependent 3-30mg/kg in 0.5% methyl cellulose) was “increased the percentage of time spent investigating the male stimulus” and the “lordosis quotient (LQ)” value [2, 6] was “increased the LQ”. It also gave a minimal effective dose ([2]; Rattus norvegicus, Example 31, single oral administration in PEG200, 1h after administration, P<0.01, read-out: MED (increase in LQ)) of 100 mg/kg.

In the case of CNCCC(Oc1ccc(C(F)(F)F)cc1)c1ccccc1 (centres unmarked) [fluoxetine, reference compound], the Ejaculation latency (Sprague Dawley male rats [3]; [7]) is reported as “significantly increased”, the Mount latency (Sprague Dawley male rats [3]; [7]) is reported as “significantly increased” and the “percentage of animals ejaculating” value (Sprague Dawley male rats [3]; within 30 minutes, day 4 Compound (1) 15mg/kg or yohimbine 2mg/kg i.p. (vs fluoxetine+vehicle)) is reported as “significantly lower”. For the same compound, the Ejaculation latency (Sprague Dawley male rats [4]) was “also increased”, the Intromission latency (Sprague Dawley male rats [4]) was “significantly increased” and the Mount latency (Sprague Dawley male rats [4]) was “significantly increased”. The Refractory period (Sprague Dawley male rats [4]) was “also increased” and the “number of mounts and intromissions required to achieve ejaculation” value (Sprague Dawley male rats [4]) was “No changes”.

For CC(=O)[C@H]1CC[C@H]2[C@@H]3CCC4=CC(=O)CC[C@]4(C)[C@H]3CC[C@]12C [progesterone, reference compound], the “proceptivity, day 1” value ([5]; Example 3, Compound (1) 15mg/kg i.p. 1h before test, progesterone 0.5mg/0.1ml s.c. 4h before, vs vehicle, P<0.01) was “stimulatory effect on proceptivity” and the “percentage of time spent investigating the male stimulus” value ([5]; Example 5, progesterone 0.5mg/0.1ml s.c. 4h before test, compared to vehicle group) was “increased the percentage of time spent investigating the male stimulus”.

For CCCN1CCC[C@@H]2Cc3nc(N)ncc3C[C@H]21 [quinelorane, reference compound], the “lordosis quotient (LQ)” value ([2]; Example 2, after vs before administration (paired t test), Compound (1) 10mg/kg i.p. 1h) was “significantly (P<0.01) increased the LQ” and the “lordosis quotient (LQ)” value [2, 6] was “significantly (P<0.01) increased the LQ”.

For neuromedin B [NMB, reference compound], the “proceptivity in progesterone-treated rats” value ([5]; Example 5, NMB 100ng i.c.v. 10min before tests, P<0.001 vs progesterone) was “significantly reduced proceptivity”.
